Molecular target: T1, Human M4 (Homo sapiens, UniProt P08173)
T1 construct: expressed in transfected cells; host or cells: CHO-K1 (ATCC), co-transfected with chimeric G protein Gqi5
T1 sequence (P08173 1-479): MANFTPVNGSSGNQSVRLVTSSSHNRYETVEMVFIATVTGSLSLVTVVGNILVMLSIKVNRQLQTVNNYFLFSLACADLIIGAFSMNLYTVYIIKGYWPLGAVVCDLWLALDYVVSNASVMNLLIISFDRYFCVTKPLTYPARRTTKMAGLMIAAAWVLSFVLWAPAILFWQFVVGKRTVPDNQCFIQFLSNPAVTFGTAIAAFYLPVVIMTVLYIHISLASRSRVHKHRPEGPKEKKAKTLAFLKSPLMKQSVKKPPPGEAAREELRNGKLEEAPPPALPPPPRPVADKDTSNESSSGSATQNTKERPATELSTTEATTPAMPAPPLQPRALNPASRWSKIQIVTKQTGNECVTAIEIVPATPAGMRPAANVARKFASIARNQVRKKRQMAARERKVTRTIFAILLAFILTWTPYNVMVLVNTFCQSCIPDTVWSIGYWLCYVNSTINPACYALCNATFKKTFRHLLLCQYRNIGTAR
Assay: mAChR M4 cell-based functional assay (calcium flux, antagonism of EC80 acetylcholine response)
Details: M4/Gqi5/CHO-K1 cells; for remaining activity at 30 µM: CHO-K1, % ACh maximum at 30 μM, read-out: Human M4 Emin; for IC50: decrease of response elicited by EC80 acetylcholine
How it was run: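 CHO-K1 cells stably expressing human or rat M4 with Gqi5, Fluo-4 loaded; calcium measured by fluorescence ratio on FDSS. Compound added, then EC20 acetylcholine at 143 s and EC80 at 268 s; IC50 from decrease of EC80 response, four-parameter logistic fit.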

Row | Compound | remaining activity at 30 µM [%] | IC50 [nM]
1 | [2H]C([2H])(C1CCOCC1)N1C[C@H]2C[C@H](Nc3nnc(-c4cc(F)ccc4F)c(C)c3C(F)(F)F)C[C@H]2C1 [compound 75, (3aR,5s,6aS)-N-(6-(2,5-difluorophenyl)-5-methyl-4-(trifluoromethyl)pyridazin-3-yl)-2-((tetrahydro-2H-pyran-4-yl)methyl-d2)octahydrocyclopenta[c]pyrrol-5-amine] | 3 | 20.9
2 | [2H]C([2H])(C1CCOCC1)N1C[C@H]2C[C@H](Nc3nnc(-c4ccccc4)c(C)c3C(F)(F)F)C[C@H]2C1 [compound 76, (3aR,5s,6aS)-N-(5-methyl-6-phenyl-4-(trifluoromethyl)pyridazin-3-yl)-2-((tetrahydro-2H-pyran-4-yl)methyl-d2)octahydrocyclopenta[c]pyrrol-5-amine] | 3 | 12.1
3 | [2H]C([2H])(C1CCOCC1)N1C[C@H]2C[C@H](Nc3nnc(-c4cc(F)cc(F)c4F)c(C4CC4)c3C(F)(F)F)C[C@H]2C1 [compound 77, (3aR,5s,6aS)-N-(5-cyclopropyl-4-(trifluoromethyl)-6-(2,3,5-trifluorophenyl)pyridazin-3-yl)-2-((tetrahydro-2H-pyran-4-yl)methyl-d2)octahydrocyclopenta[c]pyrrol-5-amine] | 2 | 83.5
4 | OC1(CN2C[C@H]3C[C@H](Nc4nnc(-c5cc(F)ccc5F)cc4C(F)F)C[C@H]3C2)CCOCC1 [compound 78, 4-(((3aR,5s,6aS)-5-((4-(difluoromethyl)-6-(2,5-difluorophenyl)pyridazin-3-yl)amino)hexahydrocyclopenta[c]pyrrol-2(1H)-yl)methyl)tetrahydro-2H-pyran-4-ol] | 4 | 230
5 | CC1(CN2C[C@H]3C[C@H](Nc4nnc(-c5cc(F)ccc5F)cc4C(F)F)C[C@H]3C2)CCOCC1 [compound 79, (3aR,5s,6aS)-N-(4-(difluoromethyl)-6-(2,5-difluorophenyl)pyridazin-3-yl)-2-((4-methyltetrahydro-2H-pyran-4-yl)methyl)octahydrocyclopenta[c]pyrrol-5-amine] | 4 | 110
6 | Fc1ccc(F)c(-c2cc(C(F)F)c(N[C@H]3C[C@@H]4CN(C[C@@H]5COCCO5)C[C@@H]4C3)nn2)c1 [compound 80, (3aR,5S,6aS)-2-(((R)-1,4-dioxan-2-yl)methyl)-N-(4-(difluoromethyl)-6-(2,5-difluorophenyl)pyridazin-3-yl)octahydrocyclopenta[c]pyrrol-5-amine] | 4 | 5
7 | Fc1ccc(F)c(-c2cc(C(F)F)c(N[C@H]3C[C@@H]4CN(C[C@H]5COCCO5)C[C@@H]4C3)nn2)c1 [compound 81, (3aR,5R,6aS)-2-(((S)-1,4-dioxan-2-yl)methyl)-N-(4-(difluoromethyl)-6-(2,5-difluorophenyl)pyridazin-3-yl)octahydrocyclopenta[c]pyrrol-5-amine] | 4 | 180
8 | Cc1ccc(C(F)(F)F)cc1-c1cc(C(F)F)c(N[C@H]2C[C@@H]3CN(CC4CCOCC4)C[C@@H]3C2)nn1 [compound 82, (3aR,5s,6aS)-N-(4-(difluoromethyl)-6-(2-methyl-5-(trifluoromethyl)phenyl)pyridazin-3-yl)-2-((tetrahydro-2H-pyran-4-yl)methyl)octahydrocyclopenta[c]pyrrol-5-amine] | 4 | 49
9 | Cn1cc2cc(-c3cc(C(F)F)c(N[C@H]4C[C@@H]5CN(CC6CCOCC6)C[C@@H]5C4)nn3)ccc2n1 [compound 83, (3aR,5s,6aS)-N-(4-(difluoromethyl)-6-(2-methyl-2H-indazol-5-yl)pyridazin-3-yl)-2-((tetrahydro-2H-pyran-4-yl)methyl)octahydrocyclopenta[c]pyrrol-5-amine] | 5 | 2.3
10 | Cc1c(-c2cc(C(F)F)c(N[C@H]3C[C@@H]4CN(CC5CCOCC5)C[C@@H]4C3)nn2)ccc2nn(C)cc12 [compound 84, (3aR,5s,6aS)-N-(4-(difluoromethyl)-6-(2,4-dimethyl-2H-indazol-5-yl)pyridazin-3-yl)-2-((tetrahydro-2H-pyran-4-yl)methyl)octahydrocyclopenta[c]pyrrol-5-amine] | 3 | 0.89
11 | COc1ccc(F)cc1-c1cc(C(F)F)c(N[C@H]2C[C@@H]3CN(CC4CCOCC4)C[C@@H]3C2)nn1 [compound 85, (3aR,5s,6aS)-N-(4-(difluoromethyl)-6-(5-fluoro-2-methoxyphenyl)pyridazin-3-yl)-2-((tetrahydro-2H-pyran-4-yl)methyl)octahydrocyclopenta[c]pyrrol-5-amine] | 4 | 11
12 | FC(F)c1cc(-c2ccccc2OC(F)(F)F)nnc1N[C@H]1C[C@@H]2CN(CC3CCOCC3)C[C@@H]2C1 [compound 86, (3aR,5s,6aS)-N-(4-(difluoromethyl)-6-(2-(trifluoromethoxy)phenyl)pyridazin-3-yl)-2-((tetrahydro-2H-pyran-4-yl)methyl)octahydrocyclopenta[c]pyrrol-5-amine] | 5 | 19
13 | Fc1ccc(C(F)(F)F)c(-c2cc(C(F)F)c(N[C@H]3C[C@@H]4CN(CC5CCOCC5)C[C@@H]4C3)nn2)c1 [compound 87, (3aR,5s,6aS)-N-(4-(difluoromethyl)-6-(5-fluoro-2-(trifluoromethyl)phenyl)pyridazin-3-yl)-2-((tetrahydro-2H-pyran-4-yl)methyl)octahydrocyclopenta[c]pyrrol-5-amine] | 3 | 4.9
14 | [2H]C([2H])(C1CCOCC1)N1C[C@H]2C[C@H](Nc3nnc(-c4cc(F)cc(F)c4F)cc3C(F)F)C[C@H]2C1 [compound 88, (3aR,5s,6aS)-N-(4-(difluoromethyl)-6-(2,3,5-trifluorophenyl)pyridazin-3-yl)-2-((tetrahydro-2H-pyran-4-yl)methyl-d2)octahydrocyclopenta[c]pyrrol-5-amine] | 3 | 10

Reference: patent publication US20230122344A1, “ANTAGONISTS OF THE MUSCARINIC ACETYLCHOLINE RECEPTOR M4” (Vanderbilt University, priority 2019, published 2023)
